Measurements as given in ChEMBL document CHEMBL1201862, “PubChem BioAssay data set” (2004).
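Assay format: 96-well plates, 48-hour exposure. GI50: concentration for 50% inhibition of growth.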 The source made the active and inactive calls. Rule as the data show it: active = GI50 up to about 1.1 µM and inactive = higher.

Legend:
Assay in all cases: inhibition of tumour cell growth, NCI panel, 48 h
786-0 = test system: 786-0
A498 = test system: A498
A549 = test system: A549
ACHN = test system: ACHN
CCRF-CEM = test system: CCRF-CEM
COLO 205 = test system: COLO 205
DLD-1 = test system: DLD-1
DMS-114 = test system: DMS-114
DMS-273 = test system: DMS-273
EKVX = test system: EKVX
HCC 2998 = test system: HCC 2998
HCT-116 = test system: HCT-116
HL-60 = test system: HL-60
HOP-62 = test system: HOP-62
HOP-92 = test system: HOP-92
HT-29 = test system: HT-29
IGROV-1 = test system: IGROV-1
K562 = test system: K562
KM-20L2 = test system: KM-20L2
KM12 = test system: KM12
LOX IMVI = test system: LOX IMVI
LXFL 529 = test system: LXFL 529
M14 = test system: M14
M19-MEL = test system: M19-MEL
MOLT-4 = test system: MOLT-4
Malme-3M = test system: Malme-3M
NCI-H23 = test system: NCI-H23
NCI-H460 = test system: NCI-H460
NCI-H522 = test system: NCI-H522
OVCAR-3 = test system: OVCAR-3
OVCAR-5 = test system: OVCAR-5
OVCAR-8 = test system: OVCAR-8
RPMI-8226 = test system: RPMI-8226
RXF 393 = test system: RXF 393
RXF 631 = test system: RXF 631
SF-268 = test system: SF-268
SF-295 = test system: SF-295
SF-539 = test system: SF-539
SK-MEL-28 = test system: SK-MEL-28
SK-MEL-2 = test system: SK-MEL-2
SK-MEL-5 = test system: SK-MEL-5
SK-OV-3 = test system: SK-OV-3
SNB-75 = test system: SNB-75
SNB-78 = test system: SNB-78
SW-620 = test system: SW-620
TK-10 = test system: TK-10
U-251 = test system: U-251
UACC-257 = test system: UACC-257
UACC-62 = test system: UACC-62
XF498 = test system: XF498
CAKI-1 = test system: CAKI-1
DU-145 = test system: DU-145
HCT-15 = test system: HCT-15
Hs-578T = test system: Hs-578T
MCF7 = test system: MCF7
MDA-MB-231 = test system: MDA-MB-231
MDA-MB-435 = test system: MDA-MB-435
MDA-N = test system: MDA-N
NCI-H226 = test system: NCI-H226
NCI/ADR-RES = test system: NCI/ADR-RES
OVCAR-4 = test system: OVCAR-4
PC-3 = test system: PC-3
SN12C = test system: SN12C
SNB-19 = test system: SNB-19
SR = test system: SR
T47D = test system: T47D
UO-31 = test system: UO-31

For C/C(CC(=O)Nc1ccc(Cl)cc1)=N\NC(N)=S, the GI50 (786-0) was > 100 µM (inactive), the GI50 (A498) was > 100 µM (inactive) and the GI50 (A549) was 26.5 µM (inactive). For the same compound, the GI50 (ACHN) was 9.14 µM (inactive), the GI50 (CCRF-CEM) was 30 µM (inactive) and the GI50 (COLO 205) was 23.3 µM (inactive). For the same compound, the GI50 (DLD-1) was 18.3 µM (inactive), the GI50 (DMS-114) was 39.1 µM (inactive) and the GI50 (DMS-273) was 8.09 µM (inactive). The GI50 (EKVX) was > 100 µM (inactive), the GI50 (HCC 2998) was 30.9 µM (inactive) and the GI50 (HCT-116) was 71.4 µM (inactive). For the same compound, the GI50 (HL-60) was 12.8 µM (inactive), the GI50 (HOP-62) was 67.9 µM (inactive) and the GI50 (HOP-92) was > 100 µM (inactive). For the same compound, the GI50 (HT-29) was > 100 µM (inactive), the GI50 (IGROV-1) was > 100 µM (inactive) and the GI50 (K562) was 5.43 µM (inactive). The GI50 (KM-20L2) was 13.9 µM (inactive), the GI50 (KM12) was 21.4 µM (inactive) and the GI50 (LOX IMVI) was 1.81 µM (inactive). The GI50 (LXFL 529) was 5.47 µM (inactive), the GI50 (M14) was 6.47 µM (inactive) and the GI50 (M19-MEL) was 66.5 µM (inactive). The GI50 (MOLT-4) was 45.3 µM (inactive), the GI50 (Malme-3M) was > 100 µM (inactive) and the GI50 (NCI-H23) was > 100 µM (inactive). The GI50 (NCI-H460) was 45.5 µM (inactive), the GI50 (NCI-H522) was 47.2 µM (inactive) and the GI50 (OVCAR-3) was > 100 µM (inactive). The GI50 (OVCAR-5) was > 100 µM (inactive), the GI50 (OVCAR-8) was > 100 µM (inactive) and the GI50 (RPMI-8226) was 61.8 µM (inactive). The GI50 (RXF 393) was > 100 µM (inactive), the GI50 (RXF 631) was > 100 µM (inactive) and the GI50 (SF-268) was 54 µM (inactive). For the same compound, the GI50 (SF-295) was 29 µM (inactive), the GI50 (SF-539) was 34.2 µM (inactive) and the GI50 (SK-MEL-28) was > 100 µM (inactive). For the same compound, the GI50 (SK-MEL-2) was > 100 µM (inactive), the GI50 (SK-MEL-5) was 26.1 µM (inactive) and the GI50 (SK-OV-3) was > 100 µM (inactive). For the same compound, the GI50 (SNB-75) was > 100 µM (inactive), the GI50 (SNB-78) was > 100 µM (inactive) and the GI50 (SW-620) was > 100 µM (inactive). The GI50 (TK-10) was > 100 µM (inactive), the GI50 (U-251) was > 100 µM (inactive) and the GI50 (UACC-257) was 21.9 µM (inactive). The GI50 (UACC-62) was 4.95 µM (inactive) and the GI50 (XF498) was > 100 µM (inactive).

For Cc1nc2c(n1-c1ccc(Br)cc1)C(=O)c1ccccc1C2=O, the GI50 (786-0) was 5.16 µM (inactive), the GI50 (A498) was > 49.8 µM (inactive) and the GI50 (A549) was 6.93 µM (inactive). For the same compound, the GI50 (ACHN) was 9.06 µM (inactive), the GI50 (CAKI-1) was 12.5 µM (inactive) and the GI50 (CCRF-CEM) was 3.16 µM (inactive). The GI50 (COLO 205) was 4.38 µM (inactive), the GI50 (DLD-1) was 7.59 µM (inactive) and the GI50 (DMS-114) was 26 µM (inactive). For the same compound, the GI50 (DMS-273) was 4.49 µM (inactive), the GI50 (DU-145) was 58.2 µM (inactive) and the GI50 (EKVX) was > 54.6 µM (inactive). The GI50 (HCC 2998) was 14 µM (inactive), the GI50 (HCT-116) was 1.63 µM (inactive) and the GI50 (HCT-15) was 1.04 µM. For the same compound, the GI50 (HL-60) was 0.783 µM (active), the GI50 (HOP-62) was 18.3 µM (inactive) and the GI50 (HOP-92) was 27.2 µM (inactive). For the same compound, the GI50 (HT-29) was 6.68 µM (inactive), the GI50 (Hs-578T) was 7.78 µM (inactive) and the GI50 (IGROV-1) was 21.2 µM (inactive). The GI50 (K562) was 1.33 µM (inactive), the GI50 (KM12) was 6.5 µM (inactive) and the GI50 (LOX IMVI) was 2.62 µM (inactive). For the same compound, the GI50 (M14) was 17.7 µM (inactive), the GI50 (MCF7) was 3.62 µM (inactive) and the GI50 (MDA-MB-231) was 0.406 µM (active). The GI50 (MDA-MB-435) was 6.73 µM (inactive), the GI50 (MDA-N) was 6.84 µM (inactive) and the GI50 (MOLT-4) was 0.989 µM (active). The GI50 (Malme-3M) was 9.95 µM (inactive), the GI50 (NCI-H226) was 51.6 µM (inactive) and the GI50 (NCI-H23) was 34 µM (inactive). The GI50 (NCI-H460) was 1.44 µM (inactive), the GI50 (NCI-H522) was 10.4 µM (inactive) and the GI50 (NCI/ADR-RES) was 5.78 µM (inactive). The GI50 (OVCAR-3) was 12 µM (inactive), the GI50 (OVCAR-4) was 14.8 µM (inactive) and the GI50 (OVCAR-5) was > 100 µM (inactive). For the same compound, the GI50 (OVCAR-8) was 6.52 µM (inactive), the GI50 (PC-3) was 1.26 µM (inactive) and the GI50 (RPMI-8226) was 1.43 µM (inactive). For the same compound, the GI50 (RXF 393) was 14.8 µM (inactive), the GI50 (RXF 631) was 2.06 µM (inactive) and the GI50 (SF-268) was 5.21 µM (inactive). The GI50 (SF-295) was 5.45 µM (inactive), the GI50 (SF-539) was 7.66 µM (inactive) and the GI50 (SK-MEL-28) was 12.9 µM (inactive). The GI50 (SK-MEL-2) was 66.4 µM (inactive), the GI50 (SK-MEL-5) was 12.6 µM (inactive) and the GI50 (SK-OV-3) was 42.2 µM (inactive). For the same compound, the GI50 (SN12C) was 4.76 µM (inactive), the GI50 (SNB-19) was 3.6 µM (inactive) and the GI50 (SNB-75) was 20 µM (inactive). The GI50 (SNB-78) was 14.6 µM (inactive), the GI50 (SR) was 1.07 µM (active) and the GI50 (SW-620) was 7.74 µM (inactive). For the same compound, the GI50 (T47D) was 19.3 µM (inactive), the GI50 (TK-10) was 34.4 µM (inactive) and the GI50 (U-251) was 3.54 µM (inactive). For the same compound, the GI50 (UACC-257) was 19.5 µM (inactive), the GI50 (UACC-62) was 2.82 µM (inactive) and the GI50 (UO-31) was 7.76 µM (inactive).
